Measurements: patent US8853194B2, “Sterol derivatives and their synthesis and use” (priority 2009, dated 2014)
Where “and” joins values, the source holds several entries; their conditions need not be identical. Equal entries are not always repeated. Where two headings read alike, the source gives them in different places. Marks after values point to notes of the source that are not given here.

What was measured:
[1] = system: Caspase 3; conditions: 2.0 μg, HepG2 cells, A405
Protocol: (§1) 2.1.1 HepG2 cells were digested by trypsin in the cell culture medium. The resulting mixture (6000 was centrifuged for 5 minutes at 4° C. to collect the cells. The supernatant was carefully aspirated and discarded. The remains were washed once with PBS, added to lysate (100 μl/2×10^6 cells); and then, after resuspending the precipitation, ice cracked for 15 minutes.
(§2) 2.1.2 The resulting mixture (16000 g) was centrifuged at 4° C. for 15 minutes.
(§3) 2.1.3 The supernatant was transferred into a centrifugal tube that was pre-cooled by ice bath.
2.2.1 Took out pNA and a suitable amount of Ac-DEVD-PNA (2 mM), put them on the ice bath for later use;
(§4) 2.2.3 Incubating at 37° C. for 120 minutes, detecting Caspase 3 with A405;

[2] = system: ICR mice; assay: Intraperitoneal injection LD50 for mouse (KORBER's method); type: in vivo; conditions: for Animal deaths: 10 mice, in 7 days
Protocol: I. Experiment Item: Intraperitoneal injection LD50 for mouse (KORBER's method)
ICR mice (SPF grade), with a weight range of 18-22 g, provided by Vital River Laboratories (VRL) in Beijing, China, were used. There were 5 treatment groups in total, wherein 2000 mg/kg was the highest dose, and the others decreased to 0.8 times, i.e. 1600 mg/kg, 1280 mg/kg, 1024 mg/kg and 819.2 mg/kg. The mice were randomly divided into groups. Each group had 10 mice with half male and half female. Each mouse was introperitoneal injected (0.2 ml/10 g. Observed 3-7 days, a variety of animal responses and the amount of dead mice in each group were recorded. LD50 and confidence limits were calculated by the modified Karber method(Korbor) according to the mortality rate of animals in each group.

[3] = system: human lung cancer cell A549
Protocol: (§5) The human hepatoma cells HepG2, human lung cancer cells A549 and NIH3T3 cells were recovered, and subcultured in culture flasks. Once the cells grew to the logarithmic phase, the experiment can be started. The cells were digested by high-pressure filtered trypsin to prepare a cell-containing suspension, dyed for 3 minutes with 0.4% trypan blue, and then counted with the blood-cell counter (living cells were not colored, while dead cells were stained blue).
(§6) The three types of cells in logarithmic phase were seeded in 96-well plates with a density of 1×10^4/ml (200 μL/well), and then cultivated for 24 hours at 37° C. in 5% CO2 cultivable box. The culture media was aspirated and discarded. […] After cultivating for 24 hours and 48 hours, 100 ul supernatant was carefully aspirated and discarded, respectively. MTS (20 μl/well) was added and mixed evenly. The mixture was cultivated for 1 hour at 37° C. in 5% CO2 cultivable box. The absorbency at 492 nm was determined by quantitative Enzyme-linked immunosorbent assay (ELISA). The experiment was repeated for three times. The growth inhibition rate was calculated as follows. Growth Inhibition rate(%)=[(mean OD value of control group−mean OD value of treatment group)/mean OD value of control group]×100%

[4] = system: human immortalized fibroblast cell NIH3T3
Protocol: as §5, §6

[5] = system: human hepatoma cell HepG2
Protocol: as §5, §6

[6] = system: VEGF; conditions: 16 mg/kg (low dose group), OD at 450 nm
Protocol: Before taking tumors out, blood was collected by eye bleeding from mice in the four groups, i.e. the negative control group, the positive CTX control group, the high dose (32 mg/kg) group and the low dose (16 mg/kg) group.
1.1 Preparing reagents, samples and standards;
1.2 Adding the prepared samples and standards, and reacting for 90 minutes at 37° C.;
1.3 Washing the plate twice, adding biotinylated antibody working solution, and reacting for 60 minutes at 37° C.;
1.4 Washing the plate for three times, adding ABC working solution, and reacting for 30 minutes at 37° C.;
1.5 Washing the plate for five times, adding TMB color liquid, and reacting in dark for 15 minutes at 37° C.;
1.6 Adding TMB stop solution, and measuring OD value at 450 nm.

[7] = system: CAM vessels; assay: CAM assay, effect on tumor angiogenesis; type: in vivo, German Roman embryonated eggs; conditions: 72 hours incubation
Protocol: A sterile gelatin sponge, previously made into disks with diameter of 5 mm by a hole puncher, was used as sample carrier. […] There were 3 dose groups, wherein 5 μl (low dose group, with a dose volume of 2 μg/embryo), 10 μl (middle dose group, with a dose volume of 4 μg/embryo), and 20 μl (high dose group, with a dose volume of 8 μg/embryo) of the solution were added respectively into gelatin sponge slices by a quantitative liquid transfer. The sponge slices were dried in the sterile environment.
A sterilized egg was placed into a 37° C. incubator with its air chamber upward. In the 7th day, the embryo was positioned on a super-clean bench and sterilized by ethanol, and then it was drilled by a dental drill to form a little hole in the top of the embryo. Egg shell and shell membrane around the hole were carefully removed to form an opening of about 1.2 cm×1.2 cm; after determining a sample-adding site, the air chamber membrane was carefully pricked at the separation place between the chamber and the yolk by a syringe needle; through the prick hole 1-2 drops of sterilized water was injected, which made the chamber membrane and the CAM membrane be separated; after gently removing the upper layer of the chamber membrane with forceps, the CAM membrane in the lower layer was exposed.
A drug-containing carrier was placed, at the junction area of the CAM membrane and the yolk sac membrane, on a site where vessels were less, and then sealed with sterilized transparent adhesive tape to continue to incubate for 72 hours.
After the incubation, the transparent adhesive tape stopped on the top of the air chamber was gently removed by forceps; a mixture of methanol/acetone (1:1, 1-2 ml) was gently added; the room temperature was remained constant for 10 minutes. Then, the CAM membrane was carefully peeled off and placed on a glass slide for observing and taking photos. The effect of the compound on angiogenesis was assessed by counting the numbers of large, middle, small blood vessels radiated by the carrier.

[8] = from LD50 and anti-tumor dose in mice
Excerpt: I. Experiment Item: the anti-tumor therapeutic index of CL168

[9] = system: Caspase 9; conditions: 2.0 μg, HepG2 cells
Protocol: as §1, §2, §3, §4
(§7) 2.2.4 Adding Ac-IETD-PNA (2 mM) and Ac-LEHD-PNA (2 mM), respectively, for detecting Caspase 8, 9

[10] = system: Caspase 8; conditions: 2.0 μg, HepG2 cells
Protocol: as §1, §2, §3, §4, §7

[11] = mice, intraperitoneal injection, modified Karber method

For CC(C)CCC[C@@H](C)[C@H]1CC[C@@H]2[C@]1(C)CC[C@H]1[C@]23C=C[C@]2(CC(=O)CC[C@]12C)OO3 [CL168-6, 5α,8α-cyclicobioxygen-6-cholesten-3-one], the “OD value of Caspase3” value ([1]; 24 h) was 0.190, the “OD value of Caspase3” value ([1]; 48 h) was 0.185 and the Animal deaths ([2]; 819.2 mg/kg i.p.) was 0. The Animal deaths ([2]; 1024 mg/kg i.p.) was 1, the Animal deaths ([2]; 1280 mg/kg i.p.) was 3 and the Animal deaths ([2]; 1600 mg/kg i.p.) was 6. The Animal deaths ([2]; 2000 mg/kg i.p.) was 8, the “Death in the 12 hours after administration” value ([2]; 819.2-2000 mg/kg i.p., first 12 hours) was “no death appeared” and the LD50 [2, 11] was 1479.11 mg/kg and 1479 mg/kg. For the same compound, the “LD50 95% confidence interval” value [2, 11] was 1304.19 to 1677.49 mg/kg, the “24 h Inhibition rate (%) A549” value ([3]; 2.5 μg/ml) was 48.69% and the “48 h Inhibition rate (%) A549” value ([3]; 2.5 μg/ml) was 51.91%. For the same compound, the “24 h Inhibition rate (%) A549” value ([3]; 5.0 μg/ml) was 55.78* %, the “48 h Inhibition rate (%) A549” value ([3]; 5.0 μg/ml) was 59.75* % and the “24 h Inhibition rate (%) A549” value ([3]; 10.0 μg/ml) was 62.40%. For the same compound, the “48 h Inhibition rate (%) A549” value ([3]; 10.0 μg/ml) was 69.67% and 69.37* %, the “24 h Inhibition rate (%) NIH3T3” value ([4]; 2.5 μg/ml) was 3.87% and the “48 h Inhibition rate (%) NIH3T3” value ([4]; 2.5 μg/ml) was 0.75%. The “24 h Inhibition rate (%) NIH3T3” value ([4]; 5.0 μg/ml) was 5.69%, the “48 h Inhibition rate (%) NIH3T3” value ([4]; 5.0 μg/ml) was 1.97% and the “24 h Inhibition rate (%) NIH3T3” value ([4]; 10.0 μg/ml) was 8.45%. For the same compound, the “48 h Inhibition rate (%) NIH3T3” value ([4]; 10.0 μg/ml) was 5.37%, the “24 h Inhibition rate (%) HepG2” value ([5]; 2.5 μg/ml) was 52.85% and the “48 h Inhibition rate (%) HepG2” value ([5]; 2.5 μg/ml) was 59.83%. The “24 h Inhibition rate (%) HepG2” value ([5]; 5.0 μg/ml) was 58.51* %, the “48 h Inhibition rate (%) HepG2” value ([5]; 5.0 μg/ml) was 69.08* % and the “24 h Inhibition rate (%) HepG2” value ([5]; 10.0 μg/ml) was 64.39%. For the same compound, the “48 h Inhibition rate (%) HepG2” value ([5]; 10.0 μg/ml) was 73.67%, the “OD value of serum VEGF” value [6] was 0.2064 ± 0.0114^□ and the “Large vessels (number of the vessels)” value ([7]; 2 ug/embryo) was 3.5 ± 1.8. The “Middle vessels (number of the vessels)” value ([7]; 2 ug/embryo) was 13.2 ± 3.7, the “Small vessels (number of the vessels)” value ([7]; 2 ug/embryo) was 8.8 ± 2.3 and the “Large vessels (number of the vessels)” value ([7]; 4 ug/embryo) was 3.6 ± 1.9. The “Middle vessels (number of the vessels)” value ([7]; 4 ug/embryo) was 11.2 ± 3.2, the “Small vessels (number of the vessels)” value ([7]; 4 ug/embryo) was 6.5 ± 2.5 and the “Large vessels (number of the vessels)” value ([7]; 8 ug/embryo) was 2.5 ± 2.0. For the same compound, the “Middle vessels (number of the vessels)” value ([7]; 8 ug/embryo) was 12.6 ± 5.6, the “Small vessels (number of the vessels)” value ([7]; 8 ug/embryo) was 4.0 ± 2.8 and the “anti-tumor therapeutic index (TI)” value [8] was 49.3. The “anti-tumor therapeutic index (TI)” value ([8]; listed as CL168) was “about 49.3”, the “OD value of Caspase9” value ([9]; 24 h) was 0.156 and the “OD value of Caspase9” value ([9]; 48 h) was 0.146. For the same compound, the “OD value of Caspase8” value ([10]; 24 h) was 0.413 and the “OD value of Caspase8” value ([10]; 48 h) was 0.408.
